Results from ChEMBL document CHEMBL4020765, “Synthesis and α-glucosidase inhibition activity of dihydroxy pyrrolidines” (Bioorg Med Chem Lett, 2017).

Tests used:
[1] = Inhibition of alpha glucosidase (unknown origin) using PNPG as substrate preincubated for 15 to 20 mins followed by substrate addition measured after 45 to 60 mins by spectrophotometric method
[2] = species on record: Homo sapiens; test: Potency index, ratio of miglitol IC50 to compound IC50 for alpha glucosidase (unknown origin)
[3] = species on record: Homo sapiens; test: Potency index, ratio of voglibose IC50 to compound IC50 for alpha glucosidase (unknown origin)
[4] = species on record: Homo sapiens; test: Potency index, ratio of acarbose IC50 to compound IC50 for alpha glucosidase (unknown origin)
[5] = Inhibition of alpha glucosidase (unknown origin) using PNPG as substrate preincubated for 10 mins followed by substrate addition measured after 30 mins; parameters: species or system Homo sapiens

| IC50 ([1]; read-out: IC50) [µM] | Structure (SMILES) | further results |
| --- | --- | --- |
| 262 | Nc1ccc(CCC(=O)Nc2ccc(CCC(=O)N3C[C@H](O)[C@@H](O)C3)cc2)cc1 |  |
| 495 | O=C(Nc1ccc(CCC(=O)N2C[C@H](O)[C@@H](O)C2)cc1)c1ccsc1 |  |
| 104 | O=C(CCc1ccc(O)cc1)Nc1ccc(CCC(=O)N2C[C@@H](O)[C@H](O)C2)cc1 | Ratio IC50 [2]: 3 to 4; Ratio IC50 [3]: 3 to 4; Ratio IC50 [4]: 3 to 4 |
| 602 | O=C(CCc1ccc(O)cc1)N1C[C@H](O)[C@@H](O)C1 |  |
| 556 | CC(C)(C)OC(=O)Nc1ccc(CCC(=O)N2C[C@@H](O)[C@@H](O)C2)cc1 |  |
| 98.5 | O=C(CCc1ccc(O)cc1)Nc1ccc(CCC(=O)N2C[C@H](O)[C@@H](O)C2)cc1 | Ratio IC50 [2]: 3 to 4; Ratio IC50 [3]: 3 to 4; Ratio IC50 [4]: 3 to 4 |
| 474 | O=C(Nc1ccc(CCC(=O)N2C[C@@H](O)[C@H](O)C2)cc1)c1ccsc1 |  |
| 200 | O=C(/C=C/c1ccc(F)cc1)Nc1ccc(CCC(=O)N2C[C@H](O)[C@@H](O)C2)cc1 |  |
| 111 | O=C(/C=C/c1ccc(F)cc1)Nc1ccc(CCC(=O)N2C[C@@H](O)[C@H](O)C2)cc1 |  |
| 657 | O=C(CCc1ccc(O)cc1)N1C[C@@H](O)[C@H](O)C1 |  |
| 259 | Nc1ccc(CCC(=O)Nc2ccc(CCC(=O)N3C[C@@H](O)[C@H](O)C3)cc2)cc1 |  |

Continued, compound first:

| Structure (SMILES) | IC50 ([1]; read-out: IC50) [µM] | further results |
| --- | --- | --- |
| CC(C)(C)OC(=O)Nc1ccc(CCC(=O)N2C[C@@H](O)[C@H](O)C2)cc1 |  | IC50 [1]: Not Active |
| C[C@H]1O[C@H](O[C@H]2[C@H](O)[C@@H](O)[C@@H](O[C@H]3[C@H](O)[C@@H](O)C(O)O[C@@H]3CO)O[C@@H]2CO)[C@H](O)[C@@H](O)[C@@H]1N[C@H]1C=C(CO)[C@@H](O)[C@H](O)[C@H]1O (stereo not given in full) [ACARBOSE] | 360 |  |
| O=C(/C=C/c1ccsc1)N1C[C@H](O)[C@@H](O)C1 |  | IC50 [1]: Not Active |
| O=C(CCc1ccc(C(F)(F)F)cc1)N1C[C@H](O)[C@@H](O)C1 | 863 |  |
| O=C(/C=C/c1ccc(O)cc1)N1C[C@H](O)[C@@H](O)C1 | 506 |  |
| Cn1c(C(=O)N2C[C@H](O)[C@@H](O)C2)cc2ccccc21 | 556 |  |
| O=C(CCc1ccc(C(F)(F)F)cc1)N1C[C@@H](O)[C@H](O)C1 | 856 |  |
| O=C(/C=C/c1ccccc1F)N1C[C@@H](O)[C@H](O)C1 | 862 |  |
| O=C(/C=C/c1ccccc1)N1C[C@H](O)[C@@H](O)C1 | 747 |  |
| O=S(=O)(c1ccc(OC(F)(F)F)cc1)N1C[C@@H](O)[C@H](O)C1 |  | IC50 [1]: Active |
| Cn1cc(C(=O)N2C[C@H](O)[C@@H](O)C2)c2ccccc21 | 594 |  |
| O=C(CCc1ccc(NS(=O)(=O)c2ccc(F)cc2)cc1)N1C[C@H](O)[C@@H](O)C1 |  | IC50 [1]: Active |
| O=C(CCc1ccc(F)cc1)Nc1ccc(CCC(=O)N2C[C@@H](O)[C@H](O)C2)cc1 |  | IC50 [1]: Not Active |
| O=C(CCc1ccncc1)N1C[C@@H](O)[C@H](O)C1 | 966 |  |
| Nc1ccc(CCC(=O)N2C[C@@H](O)[C@H](O)C2)cc1 | 108 | Ratio IC50 [2]: 3 to 4; Ratio IC50 [3]: 3 to 4; Ratio IC50 [4]: 3 to 4 |
| O=C(/C=C/c1ccc(O)cc1)N1C[C@@H](O)[C@H](O)C1 | 546 |  |
| O=C(CCc1ccc(NS(=O)(=O)c2ccc(C(F)(F)F)cc2)cc1)N1C[C@H](O)[C@@H](O)C1 | 463 |  |
| O=S(=O)(c1ccc(O)cc1)N1C[C@H](O)[C@@H](O)C1 | 453 |  |
| O=S(=O)(c1ccc(C(F)(F)F)cc1)N1C[C@H](O)[C@@H](O)C1 | 497 |  |
| OCC(CO)N[C@H]1C[C@](O)(CO)[C@@H](O)[C@H](O)[C@H]1O [VOGLIBOSE] | 325 |  |

| Structure (SMILES) | IC50 ([1]; read-out: IC50) [µM] | further results |
| --- | --- | --- |
| O=C(/C=C/c1ccc(O)cc1)Nc1ccc(CCC(=O)N2C[C@H](O)[C@@H](O)C2)cc1 |  | IC50 [1]: Not Active |
| O=C(CCc1ccc(N(S(=O)(=O)c2ccc(C(F)(F)F)cc2)S(=O)(=O)c2ccc(C(F)(F)F)cc2)cc1)N1C[C@H](O)[C@@H](O)C1 | 114 |  |
| O=C(CCc1ccccc1)N1C[C@@H](O)[C@H](O)C1 |  | IC50 [1]: Not Active |
| O=S(=O)(c1ccc(OC(F)(F)F)cc1)N1C[C@H](O)[C@@H](O)C1 | 228 |  |
| O=C(/C=C/c1ccc(O)cc1)Nc1ccc(CCC(=O)N2C[C@@H](O)[C@H](O)C2)cc1 |  | IC50 [1]: Not Active |
| Cn1c(C(=O)N2C[C@@H](O)[C@H](O)C2)cc2ccccc21 | 539 |  |
| O=C(/C=C/c1ccccc1C(F)(F)F)N1C[C@@H](O)[C@H](O)C1 |  | IC50 [1]: Active |
| O=C(/C=C/c1ccccc1)N1C[C@@H](O)[C@H](O)C1 | 822 |  |
| O=C(CCc1ccc(F)cc1)Nc1ccc(CCC(=O)N2C[C@H](O)[C@@H](O)C2)cc1 |  | IC50 [1]: Not Active |
| OCCN1C[C@H](O)[C@@H](O)[C@H](O)[C@H]1CO [MIGLITOL] | 462 |  |
| O=C(CCc1ccccc1C(F)(F)F)N1C[C@H](O)[C@@H](O)C1 | 124 |  |
| O=C(CCc1ccc(C(F)(F)F)cc1)N1C[C@@H](O)[C@@H](O)C1 | 886 |  |
| O=C(/C=C/c1ccccc1F)N1C[C@H](O)[C@@H](O)C1 | 837 |  |
| O=C(CCc1ccc(C(F)(F)F)cc1)Nc1ccc(CCC(=O)N2C[C@@H](O)[C@H](O)C2)cc1 |  | IC50 [1]: Not Active |
| CO[C@H]1C=CC(=O)N1C(=O)CCc1ccccc1 |  | IC50 [5]: 430 µM |
| O=C(/C=C/c1ccccc1C(F)(F)F)N1C[C@H](O)[C@@H](O)C1 | 656 |  |
| Cn1cc(C(=O)N2C[C@@H](O)[C@H](O)C2)c2ccccc21 | 531 |  |
| CC(C)(C)OC(=O)Nc1ccc(CCC(=O)N2C[C@H](O)[C@@H](O)C2)cc1 |  | IC50 [1]: Not Active |
| O=C(CCc1ccccc1)N1C[C@H](O)[C@@H](O)C1 |  | IC50 [1]: Not Active |
| O=C(CCc1ccsc1)N1C[C@@H](O)[C@H](O)C1 | 723 |  |

| Structure (SMILES) | IC50 ([1]; read-out: IC50) [µM] | further results |
| --- | --- | --- |
| Nc1ccc(CCC(=O)N2C[C@H](O)[C@@H](O)C2)cc1 | 185 |  |
| O=C(/C=C/c1ccc(C(F)(F)F)cc1)Nc1ccc(CCC(=O)N2C[C@@H](O)[C@H](O)C2)cc1 |  | IC50 [1]: Not Active |
| O=C1C=C[C@H](O)N1C(=O)CCc1ccccc1 |  | IC50 [5]: 7820 µM |
| O=C(/C=C/c1ccc(C(F)(F)F)cc1)Nc1ccc(CCC(=O)N2C[C@H](O)[C@@H](O)C2)cc1 |  | IC50 [1]: Not Active |
| O=C(/C=C/c1ccc(C(F)(F)F)cc1)N1C[C@@H](O)[C@H](O)C1 | 605 |  |
| O=C(CCc1ccccc1F)N1C[C@H](O)[C@@H](O)C1 |  | IC50 [1]: Not Active |
| O=C(CCc1ccncc1)N1C[C@H](O)[C@@H](O)C1 | 943 |  |
| O=C(CCc1ccsc1)N1C[C@H](O)[C@@H](O)C1 | 796 |  |
| O=C(/C=C/c1ccc(C(F)(F)F)cc1)N1C[C@@H](O)[C@@H](O)C1 | 638 |  |
| O=C(/C=C/c1ccc(C(F)(F)F)cc1)N1C[C@H](O)[C@@H](O)C1 | 652 |  |
| O=C(CCc1ccc(NS(=O)(=O)c2ccc(F)cc2)cc1)N1C[C@@H](O)[C@H](O)C1 |  | IC50 [1]: Active |
| O=C(CCc1ccc([N+](=O)[O-])cc1)N1C[C@H](O)[C@@H](O)C1 | 772 |  |
| O=C(CCc1ccc(NS(=O)(=O)c2ccc(C(F)(F)F)cc2)cc1)N1C[C@@H](O)[C@H](O)C1 | 429 |  |
| O=C(CCc1ccc([N+](=O)[O-])cc1)N1C[C@@H](O)[C@H](O)C1 |  | IC50 [1]: Not Active |
| O=C(CCc1ccccc1C(F)(F)F)N1C[C@@H](O)[C@H](O)C1 | 272 |  |
| O=C(CCc1ccc(C(F)(F)F)cc1)Nc1ccc(CCC(=O)N2C[C@H](O)[C@@H](O)C2)cc1 |  | IC50 [1]: Not Active |
| O=C(CCc1ccccc1F)N1C[C@@H](O)[C@H](O)C1 |  | IC50 [1]: Not Active |
| Nc1ccc(CCC(=O)N2C[C@@H](O)[C@@H](O)C2)cc1 | 302 |  |
| O=C(/C=C/c1ccsc1)N1C[C@@H](O)[C@H](O)C1 |  | IC50 [1]: Not Active |
| O=S(=O)(c1ccc(O)cc1)N1C[C@@H](O)[C@H](O)C1 | 607 |  |
